The record followed here is patent US7338940B2, “Cancer treatment including glycolytic inhibitors” (priority 2000, dated 2008).

The test system of data set [1] is osteosarcoma cell line (143B; Wild type). The data set can be described thus: Growth inhibition studies in wild type 143B osteosarcoma cells. The following applies: for IC50: Homo sapiens, read-out: 50% Growth Inhibition Dose; for IC50 / 50% Growth Inhibition Dose: Wild type (143B) cells. In kind it is cell-based.
For data set [2], the system named is human breast carcinoma cells, MCF-7. The data set can be described thus: Colony forming units after co-treatment with Rho 123 and 2-dg. In kind it is cell-based. From the text:
218:1117-1119, 1982; Lampidis, T J, Bernal, S D, Summerhayes, I C, and Chen, L B. “Selective toxicity of Rhodamine 123 in carcinoma cells in vitro.” Cancer Res. 43:716-720, 1983; and Bernal, S B, Lampidis, T J, Mclsaac, B, and Chen, L B. “Anticarcinoma activity in vivo of Rhodamine 123, a mitochondrial-specific dye.” Science.

For data set [3], the system named is ρ^o cells (cell line 206). In words: Growth inhibition studies in ρ° cells devoid of mitochondrial DNA. The format is cell-based. The following applies: for IC50 / 50% Growth Inhibition Dose: ρ° cells; for IC50: read-out: 50% Growth Inhibition Dose; for Ratio of 50% growth inhibition dose, ρ° to wild type (times more resistant): ρ° vs wild type 143B cells; for Relative toxicity/sensitivity in ρ^o vs wt cells (in words): cell model (B). From the text: When an osteosarcoma cell line (143B; Wild type in Table 1 below) was exposed for prolonged periods to ethidium bromide a mutant completely devoid of mitochondrial DNA ρ^o was isolated. […] These processes are necessary for transmembrane proton pumping which creates an electronegative membrane potential (Δψmt) in the matrix side of the inner mitochondrial membrane. Since Rho 123 is a fluorescent dye, which due to its chemical positive charge accumulates in mitochondria, it is commonly used as an indicator of Δψmt.

For a further data set, the system named is implanted tumors. In words: In vivo treatment of animals with implanted tumors. The following applies: for Tumor response: animals with implanted tumors. The source says:
This latter result provides evidence that manipulation of Oxphos and glycolysis simultaneously can cure tumors in animals. […] In this regard, several reports have shown that low levels of 2-dg can be safely administered to animals for various reasons including hypersensitization of tumors to irradiation.

Data set [4] relates to tumor cells (143B or MCF-7). The data set can be described thus: Hypersensitization of tumor cells to glycolytic inhibitors (cell model (A)). In kind it is cell-based. The following applies: intact tumor cells.
Another data set concerns 143b cells. In words: Lactate production in living cells (screen for inhibitors of oxidative phosphorylation). The format is cell-based. The following applies: for Change in lactate production (in words): increasing doses. From the text: Lactate (more commonly known as lactic acid) is an end product of glycolysis that is activated when a cell cannot use oxygen as its final electron acceptor. This occurs when cells are metabolizing anaerobically. Thus, under these conditions, pyruvate, which is the last end product of glycolysis during aerobic metabolism, is further metabolized to lactate. […] This discovery created a need for a screening method to identify agents which inhibit oxidative phosphorylation and thereby render a cell hypersensitive to glycolytic inhibitors. Consequently, we have developed a rapid and an inexpensive way to detect such agents by measuring increases in the production of lactate in living cells.
Such methodology provides a practical means for testing and or screening extensive libraries of structurally diverse compounds to identify inhibitors of oxidative phosphorylation as well as for obtaining new leads to design novel inhibitors of this fundamental cellular process.

In data set [5] the test system is wild type 143B (wt) and ρ^o cells (cell line 206). In words: Flow cytometric analysis of Rho 123 accumulation/retention. In kind it is cell-based. The following applies: non-P-gp cell lines (143B wt and ρ^o). As for the experimental part:
Flow cytometric analysis was performed in order to quantitate the differences observed microscopically between wild type 143B (wt) and ρ^o cells (designated as cell line 206) in their accumulation of Rho 123.
To ensure that our accumulation results were not complicated by P-gp-mediated MDR, since Rho 123 is a known substrate for this transporter, both cell types were examined for this gene by RT-PCR and were found not to express it.

≈ marks a conversion by molar mass, not a printed value.

Turning to `O=CC[C@@H](O)[C@H](O)[C@H](O)CO` [2-deoxy-glucose, 2-deoxy-D-glucose], the IC50 in data set [1] is 1000 µg/mL (≈ 6090 µM); in data set [3], 50 µg/mL (≈ 305 µM). For the same molecule, the ID50 was 1000 µg/mL (≈ 6090 µM) in data set [1] (wt cells) and 50 µg/mL (≈ 305 µM) in data set [3] (ρ^o cells). The “Toxicity at the dose used for co-treatment” value in data set [2] (MCF-7, drug alone) is “no toxicity”. In data set [3], the “Ratio of 50% growth inhibition dose, ρ° to wild type (times more resistant)” value (from here on “Ratio of 50% growth inhibition dose, ρ°”) is 0.05. Moreover, in the data set with implanted tumors, the Tumor response entry was “only partial or no responses”. Also, the “Safety of administration to animals” value in the data set with implanted tumors (doses effective for anti-tumor activity in combination with an Oxphos inhibitor) is reported as “can be administered safely”.

Consider `COc1cccc2c1C(=O)c1c(O)c3c(c(O)c1C2=O)C[C@@](O)(C(=O)CO)C[C@@H]3O[C@H]1C[C@H](N)[C@H](O)[C@H](C)O1` [Doxorubicin], for which the IC50 in data set [1] was 0.01 µg/mL (≈ 0.0184 µM). Further, the “Hypersensitization of tumor cells to glycolytic inhibitors” value in data set [4] is on record as “do not hypersensitize”. In the data set with 143b cells (dose 0.005 μg/ml), the LACTATE is 5.1 +/− 0.4 μg/μg protein. In addition, in the data set on 143b cells (dose 0.01 μg/ml), the LACTATE is reported as 5.5 +/− 0.7 μg/μg protein. In the data set with 143b cells, the “Change in lactate production (in words)” value is given as “little or no significant changes”. In data set [3], the “Relative toxicity/sensitivity in ρ^o vs wt cells (in words)” value (“Relative toxicity/sensitivity in ρ^o” for short) is “equitoxic”; the IC50 is 0.01 µg/mL (≈ 0.0184 µM); the “Ratio of 50% growth inhibition dose, ρ°” value turned out to be 1.

In the case of `CC(=O)O[C@H]1C(=O)[C@@]2(C)[C@H]([C@H](OC(=O)c3ccccc3)[C@]3(O)C[C@H](OC(=O)[C@H](O)[C@@H](NC(=O)c4ccccc4)c4ccccc4)C(C)=C1C3(C)C)[C@]1(OC(C)=O)CO[C@@H]1C[C@@H]2O` [Paclitaxel], the IC50 in data set [1] and in data set [3] was 0.05 µg/mL (≈ 0.0586 µM) throughout. Also, in data set [4], the “Hypersensitization of tumor cells to glycolytic inhibitors” value is recorded as “do not hypersensitize”. The LACTATE with 143b cells (dose 0.0005 μg/ml) is listed as 5.6 +/− 0.7 μg/μg protein; in the data set with 143b cells (dose 0.001 μg/ml) it was 6.1 +/− 0.7 μg/μg protein; with 143b cells (dose 0.002 μg/ml) it was 6.6 +/− 0.3 μg/μg protein. In addition, in the data set with 143b cells, the “Change in lactate production (in words)” value was “little or no significant changes”. The “Relative toxicity/sensitivity in ρ^o” value in data set [3] was “equitoxic”. Further, the “Ratio of 50% growth inhibition dose, ρ°” value in data set [3] is given as 1.

As for `Cc1cc2nc3cc(C)c(N)cc3[n+](-c3ccccc3)c2cc1N.[Cl-]` [Saffranin O], the “50% Growth Inhibition Dose” value in data set [1] was determined as 0.35 µg/mL. Also, in data set [3], the “50% Growth Inhibition Dose” value was determined as 2 µg/mL and the “Ratio of 50% growth inhibition dose, ρ°” value came to 6.

With `CC[C@]1(O)C[C@@H]2CN(CCc3c([nH]c4ccccc34)[C@@](C(=O)OC)(c3cc4c(cc3OC)N(C)[C@H]3[C@@](O)(C(=O)OC)[C@H](OC(C)=O)[C@]5(CC)C=CCN6CC[C@]43[C@@H]65)C2)C1` [Vinblastine], the IC50 in data set [1] and in data set [3] was 0.00075 µg/mL (≈ 0.000925 µM) each time. The “Hypersensitization of tumor cells to glycolytic inhibitors” value in data set [4] is “do not hypersensitize”. Moreover, the LACTATE with 143b cells (dose 0.0005 μg/ml) is listed as 5.6 +/− 0.6 μg/μg protein; with 143b cells (dose 0.001 μg/ml), 6.3 +/− 0.9 μg/μg protein; with 143b cells (dose 0.002 μg/ml), 5.8 +/− 0.3 μg/μg protein. Also, in the data set on 143b cells, the “Change in lactate production (in words)” value was “little or no significant changes”. Moreover, the “Relative toxicity/sensitivity in ρ^o” value in data set [3] was “equitoxic”. In addition, the “Ratio of 50% growth inhibition dose, ρ°” value in data set [3] came out at 1.

Regarding `COc1ccc(CCN(C)CCCC(C#N)(c2ccc(OC)c(OC)c2)C(C)C)cc1OC` (stereo not drawn) [verapamil], the “Effect on retention of Rho 123” value in data set [5] was “increases the retention of Rho 123”.

Regarding Rhodamine 123, the entries for the “50% Growth Inhibition Dose” value in data set [1] and in data set [3] were 1.0 µg/mL and 50 µg/mL, respectively. For the same molecule, the “Hypersensitization of tumor cells to glycolytic inhibitors” value in data set [4] is “hypersensitize”. The “Colony forming units inhibited” value in data set [2] (MCF-7, Rho 123 at its 50% dose, 2-dg at a non-toxic dose) amounted to 50%. Moreover, the LACTATE in the data set on 143b cells (dose 0.25 μg/ml) was 9.3 +/− 0.4 μg/μg protein; in the data set on 143b cells (dose 0.50 μg/ml), 13.2 +/− 0.2 μg/μg protein; in the data set with 143b cells (dose 1.0 μg/ml), 14.6 +/− 2.3 μg/μg protein. In addition, the “Change in lactate production (in words)” value in the data set on 143b cells is given as “lactate is accordingly increased”. Further, the “Ratio of 50% growth inhibition dose, ρ°” value in data set [3] came to 50. Moreover, in the data set with implanted tumors, the Tumor response entry was “only partial or no responses”.
